In patent publication US20060134801A1, “Methods and compositions involving MDA-7” (Board of Regents, The University of Texas System, priority 2003, published 2006):

Columns and labels:
HUVECs = assay: Clonogenic survival of endothelial cells after irradiation; format: cell-based, human; details: MDA-7 protein 10 ng/ml; angiostatin, endostatin 100 ng/ml; 12 h before irradiation
Procedure: Twelve hours after seeding HUVECs in 4-well plates (Nunc, Roskilde, Denmark), medium was replaced with serum/growth factor-free medium. After serum/growth factor starvation for 12 hours, cells were treated with complete medium containing either MDA-7 protein (10 ng/ml) (removed from cultures of 293 cells), angiostatin (100 ng/ml), or endostatin (100 ng/ml). Twelve hours later, cells were irradiated with ^137CS unit (3.4 Gy/min) at room temperature, trypsinized and counted. Known numbers of cells were replated in 60 mm culture dishes and incubated to allow macroscopic colony development. Colonies were counted after 14 days, and the percent plating efficiency and surviving fractions following given treatments were calculated based on the survival of non-irradiated cells.

A549 cells = assay: Radiation clonogenic survival assay; format: cell-based, human; details: A549 and H1299
Procedure: In vitro transfection studies for all cell lines were performed by plating 2×10^5 cells in T25 flasks. Forty-eight hours after plating, cells were incubated for 1 hour with purified vector in 1 ml of medium without serum. After 1 hour, fresh medium supplemented with 10% FBS was added to the flask. Serum-free medium was used for mock transfection.
The effectiveness of treatments was assessed by clonogenic assays. Briefly, monolayers of A549, H1299, CCD-16, and MRC-9 cells were treated in T25 flasks as described above, and after various doses of irradiation the cells were trypsinized and counted. Known numbers of cells were then replated in 100 mm culture dishes and returned to the incubator to allow macroscopic colony development.

HUVEC = assay: Endothelial cell differentiation (tube formation) assay on Matrigel; format: cell-based, human; details: for concentration required to significantly inhibit HUVEC tube formation: equimolar comparison; for tube formation in the presence of IL-22R1 antibody: high concentrations, vs PBS
Procedure: Endothelial cell differentiation (tube formation) assays were done using the in vitro angiogenesis assay kit (Chemicon, Temecula, Calif.). Briefly, HUVEC and HMVEC were grown to 80% confluency, collected, resuspended in growth medium, and plated at a concentration of 2−10^4 cells/well in a 96-well plate coated with Matrigel (Chemicon, Temecula, Calif.). Cells were treated with sMDA-7 protein (1, 5, 10, and 50 ng/ml), or a preparation immunodepleted of sMDA protein for 24 h at 37° C. Cells treated with PBS served as negative controls in these experiments. The ability of sMDA-7 to inhibit tube formation was determined and quantitated by counting the number of tubes under bright-field microscopy.
For experiments involving comparative studies, cells were treated with equimolar concentrations of sMDA-7 (5, 10, and 300 ng/ml), recombinant human endostatin (5.2, 10.4, and 315 ng/ml; Calbiochem, La Jolla, Calif.), recombinant IFN-γ (4.5, 9, and 268 ng/ml; R&D systems, Minneapolis, Minn.) or recombinant IP-10 (2.4, 4.5, and 134 ng/ml; R&D systems, Minneapolis, Minn.) and analyzed for tube formation assay as described above. All samples were tested in duplicate. Experiments were repeated at least 5-6 times.
For receptor blocking studies, HUVEC grown in six-well plates were pretreated with IL-22R1 blocking antibody (1 ng/ml and 5 ng/ml). Following overnight incubation, cells were harvested, washed, and plated in Matrigel coated 96-well plates. Fresh IL-22R1 blocking antibody and sMDA-7 was added to the wells in a 1:1 ratio (1 ng/ml of IL-22R1 antibody:1 ng/ml of sMDA-7) or 1:5 ratio (1 ng/ml of IL-22R1 antibody:5 ng/ml of sMDA-7) and incubated at 37° C. After overnight incubation, the plates were examined for tube formation. All other experimental procedures were the same as described above. […] The relative amount of IL-22R1 used for experiments involving endostatin was 315 ng/ml (1:1 ratio) and 134 ng/ml for experiments involving IP-10 (1:1 ratio). All other experimental procedures were the same as described previously. For blocking studies using anti-IP-10 or anti-IFN-γ neutralizing antibodies (R & D Systems), experiments were conducted as described above for receptor studies except that HUVEC were treated with the appropriate neutralizing antibody (1 μg and 5 μg/ml) prior to treatment with sMDA-7 (300 ng/ml).

MDA-7 expression in PBMC = MDA-7 expression in PBMC (real time RT-PCR, intracellular FACS); format: cell-based, human; details: 100 U/ml; 6 hr; resting PBMC
Procedure: Cells were isolated at the designated times and protein levels measured and RNA isolated. Real time RT-PCR was performed using TaqMan OneStep procedure according to the manufacturers protocol (Applied Biosystems, Foster City Calif.). Gene specific primer/probes for MDA-7 and HPRT were purchased from Applied Biosystems. The reactions were carried out according to manufacturer's protocol using an ABI Prism 7900 HT sequence detection system and the analysis was conducted using Sequence Detection Software version 2.9. MDA-7 protein was detected by intracellular FACs analysis. Cells were treated with Brefeldin A at 10 μg/ml 4 hr prior to harvest to prohibit secretion of the cytokine. Where applicable cells were first surface stained using directly conjugated antibodies and then, to detect intracellular proteins, cells were fixed by treatment with 4% paraformaldehyde and then permeabilized with detergent, n-octyl glucopyranoside at 7 mg/ml. As the control for permeabilization, cells were also stained with a monoclonal antibody directed against the intracellular protein vimentin. Standard protocols were followed for immunofluorescence staining. Immunofluorescence was analyzed on a FACSCalibur with Cell Quest software (BD Immunosciences).
To determine what cytokines may be driving this expression, PBMC were stimulated with IL-2, a major cytokine produced during PHA activation. […]

IL-22R1 on HUVEC = target: T1, IL-22R1 on HUVEC (human, UniProt Q8N6P7 16-574); assay: cell-based or functional assay
T1 sequence (looked up): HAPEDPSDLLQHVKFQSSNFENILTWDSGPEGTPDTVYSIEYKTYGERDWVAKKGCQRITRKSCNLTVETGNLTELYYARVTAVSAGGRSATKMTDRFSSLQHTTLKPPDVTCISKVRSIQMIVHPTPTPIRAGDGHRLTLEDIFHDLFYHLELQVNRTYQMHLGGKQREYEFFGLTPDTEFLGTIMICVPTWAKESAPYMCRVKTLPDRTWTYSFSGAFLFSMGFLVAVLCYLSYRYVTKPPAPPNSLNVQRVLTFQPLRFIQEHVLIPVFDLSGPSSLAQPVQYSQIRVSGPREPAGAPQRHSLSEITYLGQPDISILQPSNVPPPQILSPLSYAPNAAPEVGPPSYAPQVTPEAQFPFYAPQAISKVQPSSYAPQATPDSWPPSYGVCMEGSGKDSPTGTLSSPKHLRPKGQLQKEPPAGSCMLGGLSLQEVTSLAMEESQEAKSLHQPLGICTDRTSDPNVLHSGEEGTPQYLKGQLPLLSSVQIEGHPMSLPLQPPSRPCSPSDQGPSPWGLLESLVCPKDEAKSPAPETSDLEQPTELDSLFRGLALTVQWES

Question: How did the “radiosensitization of HUVECs” value (HUVECs) turn out when angiostatin was run?
Answer: produced radiosensitizing effects

Question: With COc1cc(/C=C/C(=O)CC(=O)/C=C/c2ccc(O)c(OC)c2)ccc1O [curcumin, Curcumin] as the molecule, how does the Ad-mda7 radiosensitization (A549 cells; 10 μM) read?
Answer: abrogated

Question: How did the “radiosensitization of HUVECs” value (HUVECs) turn out when endostatin was run?
Answer: produced radiosensitizing effects

Question: And the “inhibition of tube formation over control” value (HUVEC; 315 ng/ml)?
Answer: 40-50%

Question: And the “concentration required to significantly inhibit HUVEC tube formation” value (HUVEC)?
Answer: 300 ng/mL

Question: What about the “tube formation in the presence of IL-22R1 antibody” value (HUVEC) of the same molecule?
Answer: significantly inhibited

Question: For COC(=O)Nc1nc2ccc(C(=O)c3cccs3)cc2[nH]1 [Nocodazole], which “radiosensitivity after G2/M arrest” value (A549 cells; 200 ng/ml) is on record?
Answer: does not enhance the radiosensitivity

Question: For IFN-γ: recombinant IFN-γ (R&D systems), which “concentration required to significantly inhibit HUVEC tube formation” value (HUVEC) is on record?
Answer: 268 ng/mL

Question: Which results are given for IP-10: recombinant IP-10 (R&D systems)?
Answer: concentration required to significantly inhibit HUVEC tube formation (HUVEC): 134 ng/mL; tube formation in the presence of IL-22R1 antibody (HUVEC): significantly inhibited

Question: How did the “expression of MDA-7 mRNA and protein” value (MDA-7 expression in PBMC) turn out when IL-15: cytokine was run?
Answer: stimulated

B1: IL-7: cytokine (protein, UniProt P13232 26-177, looked up)
Interleukin-7: DCDIEGKDGKQYESVLMVSIDQLLDSMKEIGSNCLNNEFNFFKRHICDANKEGMFLFRAARKLRQFLKMNSTGDFDLHLLKVSEGTTILLNCTGQVKGRKPAALGEAQPTKSLEENKSLKEQKKLNDLCFLKRLLQEIKTCWNKILMGTKEH
Question: How did the “expression of MDA-7 mRNA and protein” value (MDA-7 expression in PBMC) turn out when B1 was run?
Answer: stimulated

B2: secreted MDA-7 protein (soluble, glycosylated, produced by stably transfected 293 cells) (ligand)
chain: AQGQEFHFGPCQVKGVVPQKLWEAFWAVKDTMQAQDNITSARLLQQEVLQNVSDAESCYLVHTLLEFYLKTVFKNYHNRTVEVRTLKSFSTLANNFVLIVSQLQPSQENEMFSIRDSAHRRFLLFRRAFKQLDVEAALTKALGEVDILLTWMQKFYKL
modifications: glycosylated (sites not given)
Question: Which “HUVEC tube formation with sMDA-7 (5 ng/ml), restoration by 1 ng/ml IL-22R1 blocking antibody (1:5 ratio)” value (IL-22R1 on HUVEC) does the source give for B2 here?
Answer: < 60%

Question: What about the “HUVEC tube formation with sMDA-7 (5 ng/ml), restoration by 5 ng/ml IL-22R1 blocking antibody (1:1 ratio)” value (IL-22R1 on HUVEC) of the same molecule?
Answer: > 90%
